Measured values: paper PMC5834442, “Identifying inhibitors of the Leishmania inositol phosphorylceramide synthase with antiprotozoal activity using a yeast-based assay and ultra-high throughput screening platform” (Scientific Reports, 2018)
Read-outs that look alike come from different tables or passages of the source.

What was measured:
[1] = test system: L. donovani (MHOM/SD/62/1S-CL2D, LdBOB) axenic amastigotes; assay: Leishmania donovani axenic amastigote dose response assay (resazurin); assay type: cell-based; details: -logIC50 mol against L. donovani (LdBOB) axenic amastigotes, read-out: pIC50 Axenic (converted)
[2] = test system: HepG2 cells; assay: Mammalian cell cytotoxicity assay (CellTiter-Glo); assay type: cell-based, human; details: for IC50: Homo sapiens, -logIC50 mol against HepG2, read-out: PIC50 HepG2 (converted)
[3] = selectivity: pIC50 axenic minus pIC50 HepG2
[4] = selectivity, pIC50 axenic minus pIC50 HepG2

O=C(c1cccc(F)c1)c1coc2ccc(Br)cc2c1=O [ST/472875]
IC50 [1]: 2.29 µM | IC50 [2]: 63.1 µM | pSI v HepG2 [2, 3]: 1.44

COc1ccc(Cl)cc1NC(=O)Nc1cccc(Br)c1 [C2180/12/1]
IC50 [1]: 4.79 µM | IC50 [2]: 66.1 µM | pSI v HepG2 [2, 3]: 1.14

N#Cc1ccc(C=C(C(=O)Nc2ccccc2Cl)C(=O)Nc2ccccc2Cl)cc1 [ST/786454]
IC50 [1]: 0.0741 µM | IC50 [2]: 3.63 µM | pSI v HepG2 [2, 3]: 1.69

O=C(Nc1ccc(OC(F)(F)F)cc1)Nc1ccc([N+](=O)[O-])cc1 [ST/500242]
IC50 [1]: 4.27 µM | IC50 [2]: 14.1 µM | pSI v HepG2 [2, 3]: 0.52

CNS(=O)(=O)c1ccc(C)c(Nc2nccc(-c3sc(C)nc3-c3ccccc3)n2)c1 [N6896-96-B1]
IC50 [1]: 0.661 µM | IC50 [2]: 38 µM | pSI v HepG2 [2, 3]: 1.76

O=C(Nc1ccc2ncsc2c1)c1ccc(Br)s1 [ST/1280764]
IC50 [1]: 6.92 µM | IC50 [2]: > 100 µM | pSI v HepG2 [2, 3]: 1.16

N#Cc1nc(-c2ccccc2)oc1S(=O)(=O)c1ccc(Br)cc1 [ST/1197083]
IC50 [1]: 0.363 µM | IC50 [2]: 60.3 µM | pSI v HepG2 [2, 3]: 2.22

N#Cc1ccccc1Cn1cc(C(=O)c2ccccc2)c2ccccc21 [ST/1274537]
IC50 [1]: 3.55 µM | pSI v HepG2 [2]: 1.45 | IC50 [2]: > 100 µM

O=C(Nc1nnc(C(F)(F)F)s1)c1ccc([N+](=O)[O-])c(Cl)c1 [ST/640830]
IC50 [1]: 2.95 µM | IC50 [2]: 25.7 µM | pSI v HepG2 [2, 3]: 0.94

O=C(Nc1cccc(Cl)c1)Nc1ccc2nnsc2c1 [SC/98031]
IC50 [1]: 6.61 µM | IC50 [2]: 17.8 µM | pSI v HepG2 [2, 3]: 0.43

O=C(Nc1nnc(C(F)(F)F)s1)c1ccc(Cl)cc1 [ST/570135]
IC50 [1]: 3.47 µM | IC50 [2]: 16.2 µM | pSI v HepG2 [2, 3]: 0.67

CCCc1cc(=O)[nH]c(Nc2cc(Cl)cc(Cl)c2)n1 [ST/826453]
IC50 [1]: 8.91 µM | IC50 [2]: 14.1 µM | pSI v HepG2 [2, 4]: 0.20

O=C(Nc1nnc(-c2ccccc2)o1)c1ccc2c(c1)CCCC2 [ST/912241]
IC50 [1]: 1.23 µM | IC50 [2]: > 100 µM | pSI v HepG2 [2, 4]: 1.91

OC(Cn1ccnc1)(c1ccc(Cl)cc1Cl)C1CCCCC1 (stereo not drawn) [CJL/479/3]
IC50 [1]: 5.75 µM | IC50 [2]: 45.7 µM | pSI v HepG2 [2, 3]: 0.90

C=CCOc1ccc(-c2nc(-c3ccc4c(c3)CCNCC4)no2)cc1Cl.Cl [N11110-83-1]
IC50 [1]: 7.94 µM | IC50 [2]: 4.37 µM | pSI v HepG2 [2, 3]: -0.26

COc1cc([N+](=O)[O-])ccc1NC(=O)Nc1ccc(OC(F)(F)F)cc1 [ST/871026]
IC50 [1]: 6.92 µM | IC50 [2]: 13.2 µM | pSI v HepG2 [2, 4]: 0.28

Cc1ccccc1C(=O)N(Cc1cccnc1)c1nc2c(F)cccc2s1 [ST/1131244]
IC50 [1]: 8.13 µM | IC50 [2]: 52.5 µM | pSI v HepG2 [2, 3]: 0.81

Cc1cccc2sc(N(Cc3cccnc3)C(=O)C3CCCCC3)nc12 [ST/712281]
IC50 [1]: 3.16 µM | IC50 [2]: 85.1 µM | pSI v HepG2 [2, 3]: 1.43

O=S(=O)(Nc1cccc(F)c1CN1CCC(F)(F)C1)c1ccc(Cl)c(Cl)c1 [DS105792-004A6B1]
IC50 [1]: 9.12 µM | IC50 [2]: 47.9 µM | pSI v HepG2 [2, 3]: 0.72

Oc1ccc(-c2nccc(-c3ccc(Cl)cc3)n2)cc1 [SC/101464]
IC50 [1]: 2.75 µM | IC50 [2]: > 100 µM | pSI v HepG2 [2, 3]: 1.56

O=C(Nc1ccc2scnc2c1)c1ccc(Cl)s1 [ST/1127597]
IC50 [1]: 6.46 µM | IC50 [2]: 97.7 µM | pSI v HepG2 [2, 3]: 1.18

O=[N+]([O-])c1cc(NS(=O)(=O)c2ccc(Cl)c(C(F)(F)F)c2)ccc1F [ST/654862]
IC50 [1]: 4.17 µM | IC50 [2]: 38.9 µM | pSI v HepG2 [2, 3]: 0.97

Cc1[nH]c2ccccc2c(=O)c1Cc1ccc(OC(F)(F)F)cc1 [4598W 92C*A]
IC50 [1]: 1.55 µM | IC50 [2]: 95.5 µM | pSI v HepG2 [2, 3]: 1.79

O=C(Nc1nc2ccc([N+](=O)[O-])cc2s1)c1cc(Cl)sc1Cl [ST/489542]
IC50 [1]: 1.29 µM | IC50 [2]: 10 µM | pSI v HepG2 [2, 3]: 0.89

CC1(C)CCC(=Cc2ccc(Cl)cc2)CC1(O)Cn1ccnc1 (stereo not drawn) [ST/1098001]
IC50 [1]: 5.5 µM | IC50 [2]: 46.8 µM | pSI v HepG2 [2, 3]: 0.93

C=CCSc1nsc(NC(=O)Nc2ccc(Cl)cc2C(F)(F)F)n1 [ST/566960]
IC50 [1]: 0.501 µM | IC50 [2]: 23.4 µM | pSI v HepG2 [2, 3]: 1.67

O=C(Nc1ccc(Cl)c(Cl)c1)Nc1ccc(F)c([N+](=O)[O-])c1 [ST/1276812]
IC50 [1]: 3.55 µM | IC50 [2]: 10 µM | pSI v HepG2 [2, 3]: 0.45

Clc1cccc(Nc2nc(-c3ccncc3)cs2)c1 [ST/755059]
IC50 [1]: 6.76 µM | IC50 [2]: 32.4 µM | pSI v HepG2 [2, 3]: 0.68

Cc1ccc(-c2cnc(N)c(-c3nc4ccc(F)cc4[nH]3)c2)cc1 [HL209813-065A1]
IC50 [1]: 7.59 µM | IC50 [2]: 75.9 µM | pSI v HepG2 [2, 3]: 1.00

Cc1cc([N+](=O)[O-])ccc1NC(=O)Nc1cccc(F)c1 [SC/109683]
IC50 [1]: 3.8 µM | pSI v HepG2 [2]: 0.54 | IC50 [2]: 13.2 µM

Cc1[nH]c2ccccc2c(=O)c1Cc1ccc(C(F)(F)F)cc1 [4671W 92C*A]
IC50 [1]: 1.17 µM | IC50 [2]: > 100 µM | pSI v HepG2 [2, 3]: 1.93

COc1ccc(N(Cc2ccc(-c3ccccc3)o2)S(=O)(=O)c2ccccn2)cc1 [AD102638-200A3B22]
IC50 [1]: 5.89 µM | IC50 [2]: 61.7 µM | pSI v HepG2 [2, 3]: 1.02

O=C(Nc1cc(C(F)(F)F)ccc1Cl)c1ccccc1O [SC/67526]
IC50 [1]: 5.25 µM | IC50 [2]: 15.1 µM | pSI v HepG2 [2, 3]: 0.46

CC(NC(=O)c1c(O)c2sccc2[nH]c1=O)c1ccc(F)cc1 (stereo not drawn) [ST/1962332]
IC50 [1]: > 50 µM

Cc1ccc(C2=NN(S(=O)(=O)c3ccc(Cl)cc3F)C(C)C2)cc1 (stereo not drawn) [U20197/52/94]
IC50 [1]: > 50 µM

Cc1ccc(-c2nc3ccccc3[nH]2)cc1NC(=O)c1cc2ccccc2o1 [ST48766-047X8]
IC50 [1]: 11.7 µM

O=C(NCc1ccc2c(c1)OCO2)c1ccccc1NS(=O)(=O)c1cccs1 [ST/1217724]
IC50 [1]: 11.5 µM

CCc1ccccc1Oc1cncc(-c2nc3ccccc3[nH]2)n1 [ST/1138848]
IC50 [1]: > 50 µM

CCc1ccccc1NC(=O)c1cc(-c2ccc(Cl)cc2)oc1C [ST/1545686]
IC50 [1]: > 50 µM

Cc1ccccc1S(=O)(=O)N1CCN(c2nccc(-c3cccs3)n2)CC1 [ST/1415177]
IC50 [1]: 21.9 µM

O=C(c1ccc(Cl)cc1)N1CCCn2c1nc1ccccc1c2=O [ST/1938375]
IC50 [1]: > 50 µM

Cc1cnc(NS(=O)(=O)c2ccc(-c3ccc(F)cc3)s2)c(Br)c1 [DJ107456-057A22]
IC50 [1]: 28.2 µM

CCOc1ccc(C(C)C)cc1S(=O)(=O)n1ccnc1 [ST/1289929]
IC50 [1]: 10.5 µM

Cc1ccnc2nc(C(=O)N3CCCSC3=Nc3cccc(C(F)(F)F)c3)nn12 [ST/682329]
IC50 [1]: 31.6 µM

O=C(Nc1cccc(Cl)c1)Nc1ccc2snnc2c1 [ST/736217]
IC50 [1]: 13.5 µM

O=S(=O)(Nc1cccc(F)c1CNCc1ccco1)c1ccc(Cl)c(Cl)c1 [DS105792-055A6B42]
IC50 [1]: 19.5 µM

Cc1cc(C(=O)N(C2=NC(C)CS2)c2ccc(Cl)cc2)no1 (stereo not drawn) [ST/807832]
IC50 [1]: > 50 µM

O=C(O)c1cccc2c1C(=O)N(Cc1ccccc1F)C2 [ST/689197]
IC50 [1]: > 50 µM

O=S(=O)(Nc1cccc(Cl)c1Cl)c1cccs1 [ST/906545]
IC50 [1]: 21.4 µM

O=C(Nc1c(Br)c(C2CC2)nn1-c1ccccc1)C(Cl)(Cl)Cl [SC/96415]
IC50 [1]: 20.4 µM

Cc1cc(-c2nc3cc(Cl)ccc3o2)ccc1N [ST/880430]
IC50 [1]: 26.9 µM

Cc1ccc(O)c(NC(=O)c2cccc(Br)c2)c1 [ST/867278]
IC50 [1]: 21.9 µM

OC(CCC1CCCCC1)(Cn1ccnc1)c1ccc(F)cc1F (stereo not drawn) [JJP/1777/3]
IC50 [1]: 14.1 µM

O=S(=O)(Nc1ccccc1Br)c1ccc(Cl)c(C(F)(F)F)c1 [ST/630987]
IC50 [1]: 19.1 µM

CC1CSC(N(C(=O)CN2CSCC2=O)c2ccc(Cl)cc2)=N1 (stereo not drawn) [ST/812474]
IC50 [1]: > 50 µM

CC1CSC(N(C(=O)Cn2cnnn2)c2ccc(Cl)cc2)=N1 (stereo not drawn) [ST/811532]
IC50 [1]: > 50 µM

COc1ccc(C(=O)c2nocc2C(=O)c2ccc(Cl)cc2)cc1 [ST/261550]
IC50 [1]: 44.7 µM

CC1CSC(N(C(=O)Cc2cccs2)c2ccc(Cl)cc2)=N1 (stereo not drawn) [ST/815117]
IC50 [1]: 33.9 µM

CC(c1ccccc1)N1Cc2cccc(C(=O)O)c2C1=O (stereo not drawn) [ST/641236]
IC50 [1]: > 50 µM

O=S(=O)(Nc1c(F)cccc1C(F)(F)F)c1ccc(-c2ccccc2F)s1 [DJ107456-080A211]
IC50 [1]: 26.9 µM

Cc1ncccc1Oc1ncc(Cl)cc1S(=O)(=O)Nc1cc(Cl)ccc1F [AV207107-102A1]
IC50 [1]: 12.6 µM

O=C(NC1CCN(S(=O)(=O)c2ccc(O[C@@H]3CCNC3)cc2)CC1)c1ccc(Cl)c(Cl)c1 [AS45234-005A4B2C1D4]
IC50 [1]: > 50 µM

O=S(=O)(c1ccccc1)N1CCN(c2nccc(-c3cccs3)n2)CC1 [ST/1415180]
IC50 [1]: 39.8 µM

CCc1ccc2c(c1)c(=O)c(C(=O)O)cn2CC(F)(F)F [ST/2184718]
IC50 [1]: 36.3 µM

CCOc1ccc2[nH]c(=O)c(CN(Cc3cccnc3)C(=O)Nc3ccc(F)cc3)cc2c1 [ST/696972]
IC50 [1]: > 50 µM

O=S(=O)(Nc1ccccc1CN1CCC(F)(F)C1)c1ccc(Cl)c(Cl)c1 [DS105792-004A16B1]
IC50 [1]: 22.4 µM

Cc1ccc(C2=NN(S(=O)(=O)c3cc(Cl)sc3Cl)C(C)C2)cc1 (stereo not drawn) [U20197/52/63]
IC50 [1]: 32.4 µM

N#Cc1ccc(Cn2cc(C(=O)c3cccs3)c3ccccc32)cc1 [ST/516872]
IC50 [1]: 14.8 µM

CN1CCC(Oc2cccc(C(=O)N3CCC(CNS(=O)(=O)c4cccc(F)c4)CC3)c2)CC1 [DS205504-126A32B5C8]
IC50 [1]: > 50 µM

COCC(C)NC(=O)c1c(O)nc2c(C)cccn2c1=O (stereo not drawn) [ST/1131522]
IC50 [1]: > 50 µM

CN1CCN(CC(=O)Nc2ccc3c(c2)CCC3)CC1c1ccccc1 (stereo not drawn) [ST/961462]
IC50 [1]: > 50 µM

O=c1nc(SCc2ccccc2F)c2c([nH]1)CCCC2 [ST/915519]
IC50 [1]: > 50 µM

Cc1cccn2c(=O)c(C(=O)NCc3ccncc3)c(O)nc12 [ST/1129403]
IC50 [1]: > 50 µM

COc1ccc(Br)cc1C(=O)Nc1cc(Cl)ccc1O [ST/1108634]
IC50 [1]: 16.6 µM

CCCCCc1c(C)nc(Nc2ccccc2)[nH]c1=O [ST/1105254]
IC50 [1]: 17.4 µM
